Results reported in US20060069132A1, “Azolecarboxamide herbicides” (priority 2004, published 2006).

Key:
[1] = tested on: common (oilseed) sunflower; assay: Test C pre-/postemergence herbicide test; type: in vivo, Helianthus annuus; details: preemergence; for Plant response rating (0 = no effect, 100 = complete control), Sunflower: 125 g ai/ha
Outline: (§1)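 Visual ratings on a 0–100 scale (100 = complete control) made versus untreated controls after 12 to 14 greenhouse days. Test chemicals, formulated in surfactant-containing non-phytotoxic solvent, applied preemergence to planted seeds or postemergence to 1- to 4-leaf plants (2 to 18 cm).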

woolly cupgrass = assay: Test C pre-/postemergence herbicide test; type: in vivo, Eriochloa villosa; details: preemergence; for Plant response rating (0 = no effect, 100 = complete control), Cupgrass, Woolly: 125 g ai/ha
Outline: as §1

pigweed = assay: Test C pre-/postemergence herbicide test; type: in vivo, Amaranthus retroflexus; details: preemergence; for Plant response rating (0 = no effect, 100 = complete control), Pigweed: 125 g ai/ha
Outline: as §1

morningglory = assay: Test C pre-/postemergence herbicide test; type: in vivo, Ipomoea coccinea; parameters: key to Plant response rating, Morningglory: 0 = no effect, 100 = complete control; details: preemergence; for Plant response rating (0 = no effect, 100 = complete control), Morningglory: 125 g ai/ha
Outline: as §1

kochia = assay: Test C pre-/postemergence herbicide test; type: in vivo, Kochia scoparia; details: preemergence; for Plant response rating (0 = no effect, 100 = complete control), Kochia: 125 g ai/ha
Outline: as §1

barnyardgrass = assay: Test C flooded paddy test; type: in vivo, Echinochloa crus-galli; details: for Plant response rating, Barnyardgrass: 500 g ai/ha, visual rating after 12 to 14 days
Outline: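 Visual rating, 0 (no effect) to 100 (complete control), vs. controls at 12–14 d in greenhouse. Postemergence: 1–4-leaf plants, 2–18 cm. Paddy: flooded, barnyardgrass at 2-leaf stage.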

giant foxtail = assay: Test C pre-/postemergence herbicide test; type: in vivo, Setaria faberi; details: preemergence; for Plant response rating (0 = no effect, 100 = complete control), Foxtail, Giant: 125 g ai/ha
Outline: as §1

eastern black nightshade = assay: Test C pre-/postemergence herbicide test; type: in vivo, Solanum ptycanthum; details: preemergence; for Plant response rating (0 = no effect, 100 = complete control), Nightshade: 125 g ai/ha
Outline: as §1

[2] = 500 g ai/ha, scale 0 to 100 (0 no effect, 100 complete control), visual, 12 to 14 days
[3] = 62 g ai/ha, scale 0 to 100 (0 no effect, 100 complete control)
[4] = 125 g ai/ha, scale 0 to 100 (0 no effect, 100 complete control)
[5] = 250 g ai/ha, scale of 0 to 100, 0 is no effect, 100 is complete control
[6] = scale 0 to 100 (0 no effect, 100 complete control)

CCC1=NN(C(C)(C)C)CC1C(=O)Nc1cc(C(=O)N(C)CC)ccc1F (racemic) [Compound 342]
Plant response rating, Sunflower ([1]; 62 g ai/ha, scale 0 to 100): 5 | Plant response rating (0 = no effect, 100 = complete control), Sunflower [1]: 20 | Plant response rating, Sunflower ([1]; 250 g ai/ha, scale 0-100): 75 | Plant response rating, Sunflower [1, 2]: 100 | Plant response rating, Cupgrass, Woolly (woolly cupgrass; 62 g ai/ha, scale 0 to 100): 10 | Plant response rating (0 = no effect, 100 = complete control), Cupgrass, Woolly (woolly cupgrass): 40 | Plant response rating, Cupgrass, Woolly (woolly cupgrass; 250 g ai/ha, scale 0-100): 50 | Plant response rating, Cupgrass, Woolly (woolly cupgrass; [2]): 70 | Plant response rating, Pigweed (pigweed; 62 g ai/ha, scale 0 to 100): 80 | Plant response rating (0 = no effect, 100 = complete control), Pigweed (pigweed): 90 | Plant response rating, Pigweed (pigweed; 250 g ai/ha, scale 0-100): 100 | Plant response rating, Pigweed (pigweed; [2]): 100 | Plant response rating, Morningglory (morningglory; 62 g ai/ha, scale 0 to 100): 0 | Plant response rating (0 = no effect, 100 = complete control), Morningglory (morningglory): 5 | Plant response rating, Morningglory (morningglory; 250 g ai/ha, scale 0-100): 70 | Plant response rating, Morningglory (morningglory; [2]): 100 | Plant response rating, Kochia (kochia; 62 g ai/ha, scale 0 to 100): 50 | Plant response rating (0 = no effect, 100 = complete control), Kochia (kochia): 100 | Plant response rating, Kochia (kochia; 250 g ai/ha, scale 0-100): 100 | Plant response rating, Kochia (kochia; [2]): 100 | Barnyardgrass plant response rating (barnyardgrass; [3]): 20 | Barnyardgrass plant response rating (barnyardgrass; [4]): 20 | Barnyardgrass plant response rating (barnyardgrass; [5]): 50 | Plant response rating, Barnyardgrass (barnyardgrass; [6]): 60 | Plant response rating, Foxtail, Giant (giant foxtail; 62 g ai/ha, scale 0 to 100): 0 | Plant response rating (0 = no effect, 100 = complete control), Foxtail, Giant (giant foxtail): 40 | Plant response rating, Foxtail, Giant (giant foxtail; 250 g ai/ha, scale 0-100): 55 | Plant response rating, Foxtail, Giant (giant foxtail; [2]): 70 | Plant response rating, Nightshade (eastern black nightshade; 62 g ai/ha, scale 0 to 100): 60 | Plant response rating (0 = no effect, 100 = complete control), Nightshade (eastern black nightshade): 80 | Plant response rating, Nightshade (eastern black nightshade; 250 g ai/ha, scale 0-100): 80 | Plant response rating, Nightshade (eastern black nightshade; [2]): 85

CCNC(=O)c1cccc(NC(=O)c2nn(C(C)(C)CC)nc2CC)c1 [Compound 376]
Plant response rating, Sunflower ([1]; 62 g ai/ha, scale 0 to 100): 0 | Plant response rating (0 = no effect, 100 = complete control), Sunflower [1]: 0 | Plant response rating, Sunflower ([1]; 250 g ai/ha, scale 0-100): 0 | Plant response rating, Sunflower [1, 2]: 0 | Plant response rating, Cupgrass, Woolly (woolly cupgrass; 62 g ai/ha, scale 0 to 100): 5 | Plant response rating (0 = no effect, 100 = complete control), Cupgrass, Woolly (woolly cupgrass): 30 | Plant response rating, Cupgrass, Woolly (woolly cupgrass; 250 g ai/ha, scale 0-100): 75 | Plant response rating, Cupgrass, Woolly (woolly cupgrass; [2]): 85 | Plant response rating, Pigweed (pigweed; 62 g ai/ha, scale 0 to 100): 100 | Plant response rating (0 = no effect, 100 = complete control), Pigweed (pigweed): 100 | Plant response rating, Pigweed (pigweed; 250 g ai/ha, scale 0-100): 100 | Plant response rating, Pigweed (pigweed; [2]): 100 | Plant response rating, Morningglory (morningglory; 62 g ai/ha, scale 0 to 100): 0 | Plant response rating (0 = no effect, 100 = complete control), Morningglory (morningglory): 0 | Plant response rating, Morningglory (morningglory; 250 g ai/ha, scale 0-100): 5 | Plant response rating, Morningglory (morningglory; [2]): 5 | Plant response rating, Kochia (kochia; 62 g ai/ha, scale 0 to 100): 95 | Plant response rating (0 = no effect, 100 = complete control), Kochia (kochia): 100 | Plant response rating, Kochia (kochia; 250 g ai/ha, scale 0-100): 100 | Plant response rating, Kochia (kochia; [2]): 100 | Barnyardgrass plant response rating (barnyardgrass; [3]): 45 | Barnyardgrass plant response rating (barnyardgrass; [4]): 65 | Barnyardgrass plant response rating (barnyardgrass; [5]): 70 | Plant response rating, Barnyardgrass (barnyardgrass; [6]): 75 | Plant response rating, Foxtail, Giant (giant foxtail; 62 g ai/ha, scale 0 to 100): 10 | Plant response rating (0 = no effect, 100 = complete control), Foxtail, Giant (giant foxtail): 85 | Plant response rating, Foxtail, Giant (giant foxtail; 250 g ai/ha, scale 0-100): 95 | Plant response rating, Foxtail, Giant (giant foxtail; [2]): 100 | Plant response rating, Nightshade (eastern black nightshade; 62 g ai/ha, scale 0 to 100): 95 | Plant response rating (0 = no effect, 100 = complete control), Nightshade (eastern black nightshade): 100 | Plant response rating, Nightshade (eastern black nightshade; 250 g ai/ha, scale 0-100): 100 | Plant response rating, Nightshade (eastern black nightshade; [2]): 100
